“Also recorded” adds a separate entry of the source.
Test system: LPS-inflicted lung inflammation
Assay: LPS-inflicted lung inflammation model in mice (lung morphometry)
Format: in vivo
Conditions: for interalveolar septa thickness (result in words) / alveolar lumen area (result in words): 6-week dietary course then single intranasal LPS; for interalveolar septa thickness (result in words): compared with control mice without LPS; for alveolar lumen area (result in words): compared with control mice without LPS / H-form; for Partition thickness Me (25%; 75%): 6-week dietary course followed by single intranasal LPS, median
Method: FIGS. 3-6. Groups of female (f) and male (m) mice received a 6-week course of dietary (H) AA or a 6-week course of deuterated arachidonic acid (D6-ARA, 15 mg/day) followed by single intranasal administration of LPS.
COX and LOX inhibitors can be employed to down-regulate this process, with various efficacy. In contrast, the methods of the present disclosure rely on deuteration of the three oxidation prone sites within PUFA molecules, to substantially slow down the rate limiting step of oxidation (both enzymatic and non-enzymatic) via the isotope effect (IE). Made in high yield via a catalytic process, such D-PUFAs were tested in a lipopolysaccharide (LPS)-inflicted lung inflammation model in mice, a well-known lung inflammation model. (See Example 1.)
For example, the mouse LPS model has been used as a model for human acute lung injury (ALI), as the mouse lung parenchyma is damaged by the generation and release of proteases and reactive oxygen and nitrogen species produced by activated lung macrophages and transmigrated neutrophils in the interstitial and alveolar compartments. The end results are microvascular injury and diffuse alveolar damage with intrapulmonary hemorrhage, edema, and fibrin deposition (Johnson and Ward, J. Clin. Invest., (1974), 54:349-357; Flierl et al., Med. Hypothesis Res., (2006), 3:727,738), which are also features in patients with ALI and the acute respiratory distress syndrome (ARDS) (Kabir et al., Shock, (2002), 17:300-303; Ward, Am. J. Pathol., (1996), 149:1081-1086). This LPS model recapitulates aspects of the inflammatory cascades that are associated with pulmonary inflammation associated with lung disease in humans, and so is useful as a screen for compounds that may disrupt these cascades and attenuate or abort the disease process. As discussed herein, in some embodiments, the D-PUFAs of the present disclosure are administered to break the inflammatory cascade of specific cytokines and chemokines known to induce and amplify lung inflammation. Thus, for example, one can experimentally assess the efficacy of the D-PUFAs by examining whether the levels of inflammation associated markers are reduced. Two such markers, monocyte chemoattractant protein (MCP-1), and tumor necrosis factor alpha (TNF-a), are found to be associated with early and chronic infection and inflammation in humans and are mirrored in rodent models of airway inflammation including the mouse LPS pulmonary inflammation model.
LPS treatment promotes inflammation through various mechanisms including secretion of pro-inflammatory cytokines, eicosanoids and induction of ROS. Following induction by the intranasal administration of LPS, an acute lung inflammation quickly follows. […] Such a pronounced inflammatory infiltration of the interalveolar septa contributed to their destruction and more frequent formation of emphysema foci in this group. […] (See FIGS. 3-6.)
The degree of alveolar lumen area changes in both groups of animals depended on gender.

Compound | interalveolar septa thickness (result in words) | alveolar lumen area (result in words) | alveolar lumen area (result in words) (listed as D-form) | degree of inflammatory lesion of the lungs (D-form compared to H-form, after 6-week course and LPS) | Partition thickness Me (25%; 75%) (females) [μm] | Partition thickness Me (25%; 75%) (males) [μm] | protective / therapeutic effect compared to other deuterated PUFAs (preliminary data (not shown)) | interalveolar septa thickness (result in words) (listed as AA)
[2H]C([2H])(/C=C\CCCCC)/C=C\C([2H])([2H])/C=C\C([2H])([2H])/C=C\CCCC(=O)O [D-ara, 7,7,10,10,13,13-D6-arachidonic acid] | consistent with controls | consistent with controls | decrease in alveoli lumens | lesser degree of inflammatory lesion | 3.6 | 5.55 | better therapeutic effect; also recorded: best protective effect | 
CCCCC/C=C\C/C=C\C/C=C\C/C=C\CCCC(=O)O [H-ara, arachidonic acid, reference compound] | significantly increased | increase |  |  | 9.1 |  |  | increase

Reference: patent US20250057799A1, “Anti-Inflammatory Methods with Compositions Comprising Site-Specific Isotopically-Modified Fatty Acids” (BioJiva LLC, priority 2021, published 2025)
